{"source": "paper PMC6273899", "about": "(Molecules, 2016)", "key": {"trypsin [1]": {"tested_on": "trypsin", "settings": "1 mg trypsin with 1 mg peptide in 1 mL PBS, MALDI-TOF/MS", "description": "(§2) Two different media were used to appraise the stability and degradation sites of peptides, trypsin, and horse serum, respectively. For the trypsin assay, 1 mg of trypsin (Sigma-Aldrich) with 1 mg of peptide were incubated in 1 mL PBS for 72 h. Whilst for horse serum, the medium was prepared with 25% horse serum/RPMI medium (v/v) and incubated at 37 °C for 15 min. Peptide stock solution was added into the serum medium to obtain a solution having a final concentration of 1 mg/mL and test samples were kept at 37 °C for 72 h. At different time points, 20 μL samples were transferred into 100 μL of 0.25% (v/v) TFA/water which caused reaction termination. For the serum-digestion, samples were kept at 4 °C and centrifuged at 13,000 rpm for 15 min and the supernatants were then analysed by MALDI-TOF/MS."}, "[2]": {"tested_on": "Escherichia coli (NCTC 10418)", "format": "cell-based", "procedure": "(§1) The antimicrobial activity was evaluated by minimal inhibitory concentration (MIC) and minimum bactericidal concentration (MBC) assays using broth microdilution methods and in vitro assays against reference strains of microorganisms; a Gram-positive bacterium, a Gram-negative bacterium, and a yeast, respectively, Staphylococcus aureus (NCTC 10788), Escherichia coli (NCTC 10418), and Candida albicans (NCPF 1467). Briefly, the reference strains were incubated in Muller-Hinton Broth (MHB) until logarithmic phase growth was achieved which was assessed by the optical density (OD) of the culture at 550 nm. The cultures were subjected to dilution to obtain 1 × 10^6 colony-forming units (cfu)/mL for bacteria or to 5 × 10^5 cfu/ml for the yeast. Serial peptide dilutions and cultures were loaded into a 96-well microtiter plate obtaining suspensions containing 1–512 mg/L tested peptides. After incubating at 37 °C for 24 h, MIC values were determined as the lowest concentration which produced a similar OD value to the negative control (medium only). Then 10 μL of inhibited culture from each well was subcultured on Muller-Hinton Agar (MHA) and incubated for 24 h. The MBC values were defined as the minimum concentration which effected no growth."}, "[3]": {"tested_on": "Candida albicans (NCPF 1467)", "format": "cell-based", "procedure": "as §1"}, "[4]": {"tested_on": "Staphylococcus aureus (NCTC 10788)", "format": "cell-based", "procedure": "as §1"}, "[5]": {"settings": "25% horse serum/RPMI medium (v/v), 1 mg/mL peptide, 37 °C up to 72 h, MALDI-TOF/MS", "description": "as §2"}, "[6]": {"tested_on": "defibrinated horse erythrocytes", "test": "Haemolysis assay", "format": "cell-based", "settings": "2% (v/v) horse erythrocytes in PBS, 1 to 512 mg/L peptide, 37 °C 120 min, OD 550 nm; 100% = 1% Triton X-100", "procedure": "The haemolytic activity of peptides against defibrinated horse erythrocytes (TCS Biosciences Ltd., Botolph Claydon, Buckingham, UK) was determined by comparing the degree of lysis after incubating tested peptides with prewashed red cell suspensions for 2 h. A 2% suspension (v/v) was formed with prewashed defibrinated horse erythrocytes and sodium phosphate-buffered saline (PBS). Peptides were incubated with this 2% suspension in a final concentration range from 1 to 512 mg/L and all the samples were kept at a constant 37 °C for 120 min. Negative controls and positive controls were PBS alone and PBS containing Triton X-100 (Sigma-Aldrich, St. Louis, MO, USA), respectively. The sample supernatants were used to assess the extent of haemolysis by measuring the OD value at 550 nm."}, "[7]": {"test": "25% horse serum/RPMI medium (v/v)", "settings": "37 °C, up to 72 h"}, "trypsin [8]": {"tested_on": "trypsin", "test": "1 mg of trypsin (Sigma-Aldrich) with 1 mg of peptide in 1 mL PBS", "settings": "up to 72 h"}, "[9]": {"settings": "10 μL of inhibited culture subcultured on Muller-Hinton Agar, 24 h, minimum concentration with no growth"}, "[10]": {"settings": "broth microdilution, Muller-Hinton Broth, 1 × 10^6 cfu/mL, 1–512 mg/L peptide, 37 °C 24 h, OD read-out, NCTC 10418"}, "[11]": {"settings": "broth microdilution, Muller-Hinton Broth, 5 × 10^5 cfu/ml, 1–512 mg/L peptide, 37 °C 24 h, OD read-out, NCPF 1467"}, "[12]": {"settings": "broth microdilution, Muller-Hinton Broth, 1 × 10^6 cfu/mL, 1–512 mg/L peptide, 37 °C 24 h, OD read-out, NCTC 10788"}}, "note": "Several values for one entry are separate records, joined by “and”; a condition that tells them apart may be missing. Equal values may be shown once. Read-outs that look alike come from different tables or passages of the source. Square brackets hold non-standard residues; d marks the D form. Ends that are not written are not given here. Peptide text beside a SMILES is read from it."}
{"molecule": "CC[C@H](C)[C@H](NC(=O)[C@H](C)NC(=O)[C@@H](CCCCN)NC(=O)[C@@H]1CCCN1C(=O)[C@@H](NC(=O)[C@H](CC(C)C)NC(=O)[C@H](CO)NC(=O)[C@H](CC(C)C)NC(=O)[C@@H](N)Cc1ccccc1)[C@@H](C)CC)C(=O)N[C@H](CCCCN)C(=O)N[C@@H](C)C(=O)N[C@H](C(=O)NCC(=O)N[C@H](C(=O)N[C@H](CCCCN)C(=O)N[C@@H](C)C(=O)N[C@H](CCCCN)C(=O)N[C@H](CCCCN)C(=O)N[C@@H](Cc1ccccc1)C(N)=O)C(C)C)C(C)C", "note": "[PS-PT2a] (H-FLSLIP[dK]AI[dK]AVGV[dK]A[dK][dK]F-NH2)", "values": [{"measurement": "Catabolites generated by incubation with trypsin (species detected, incl. intact 1–19)", "setting": "trypsin [1]; up to 72 h", "value": "1–19 FLSLIPKAIKAVGVKAKKF"}, {"measurement": "time stable in trypsin solution", "setting": "trypsin [1]; up to 72 h", "value": "≥ 48", "unit": "h"}, {"measurement": "MBC E. coli", "setting": "[2]; [9]", "value": ">512", "unit": "µg/mL"}, {"measurement": "MIC E. coli", "setting": "[2]; [10]", "value": ">512", "unit": "µg/mL"}, {"measurement": "MBC C. albicans", "setting": "[3]; [9]", "value": 256, "unit": "µg/mL"}, {"measurement": "MIC C. albicans", "setting": "[3]; [11]", "value": 256, "unit": "µg/mL"}, {"measurement": "MBC S. aureus", "setting": "[4]; [9]", "value": ">512", "unit": "µg/mL"}, {"measurement": "MIC S. aureus", "setting": "[4]; [12]", "value": ">512", "unit": "µg/mL"}, {"measurement": "stability in serum (in words)", "setting": "[5]; pre-incubated 37 °C 15 min", "value": "relatively stable after 72 h"}]}
{"molecule": "CC[C@H](C)[C@H](NC(=O)[C@H](C)NC(=O)[C@@H](CCCCN)NC(=O)[C@@H]1CCCN1C(=O)[C@@H](NC(=O)[C@H](CC(C)C)NC(=O)[C@H](CO)NC(=O)[C@H](CC(C)C)NC(=O)[C@@H](N)Cc1ccccc1)[C@@H](C)CC)C(=O)N[C@@H](CCCCN)C(=O)N[C@@H](C)C(=O)N[C@H](C(=O)NCC(=O)N[C@H](C(=O)N[C@@H](CCCCN)C(=O)N[C@@H](C)C(=O)N[C@@H](CCCCN)C(=O)N[C@@H](CCCCN)C(=O)N[C@@H](Cc1ccccc1)C(N)=O)C(C)C)C(C)C", "note": "[PS-PT2b] (H-FLSLIP[dK]AIKAVGVKAKKF-NH2)", "values": [{"measurement": "degradation by trypsin (in words)", "setting": "trypsin [1]; up to 72 h", "value": "hydrolytically-degraded after a 30 s incubation"}, {"measurement": "scissile site with trypsin", "setting": "trypsin [1]", "value": "Lys^10-Ala^11"}, {"measurement": "MBC E. coli", "setting": "[2]; [9]", "value": 256, "unit": "µg/mL"}, {"measurement": "MIC E. coli", "setting": "[2]; [10]", "value": 256, "unit": "µg/mL"}, {"measurement": "MBC C. albicans", "setting": "[3]; [9]", "value": 64, "unit": "µg/mL"}, {"measurement": "MIC C. albicans", "setting": "[3]; [11]", "value": 32, "unit": "µg/mL"}, {"measurement": "MBC S. aureus", "setting": "[4]; [9]", "value": 512, "unit": "µg/mL"}, {"measurement": "MIC S. aureus", "setting": "[4]; [12]", "value": 256, "unit": "µg/mL"}, {"measurement": "Catabolites generated by incubation with serum (species detected, incl. intact 1–19)", "setting": "[5]", "value": "1–17 […] and 1–19 FLSLIPKAIKAVGVKAKKF"}, {"measurement": "incubation time in serum after which fragments 1–15, 1–14 and 1–17 were observed", "setting": "[5]", "value": "> 48", "unit": "h"}, {"measurement": "stability in serum (in words)", "setting": "[5]; pre-incubated 37 °C 15 min", "value": "strong stability"}]}
{"molecule": "FLSLIPHAIKAVGVHAKHF-NH2 [PS-PT1]", "values": [{"measurement": "MBC E. coli", "setting": "[2]; NCTC 10418, 24 h", "value": ">512", "unit": "µg/mL"}, {"measurement": "MIC E. coli", "setting": "[2]; NCTC 10418, 24 h", "value": 512, "unit": "µg/mL"}, {"measurement": "MBC C. albicans", "setting": "[3]; NCPF 1467, 24 h", "value": 256, "unit": "µg/mL"}, {"measurement": "MIC C. albicans", "setting": "[3]; NCPF 1467, 24 h", "value": 128, "unit": "µg/mL"}, {"measurement": "MBC S. aureus", "setting": "[4]; NCTC 10788, 24 h", "value": 256, "unit": "µg/mL"}, {"measurement": "MIC S. aureus", "setting": "[4]; NCTC 10788, 24 h", "value": 128, "unit": "µg/mL"}]}
{"molecule": "FLSLIPHAINAVGVHAKHF-NH2 [PS-PT]", "values": [{"measurement": "MBC E. coli", "setting": "[2]; NCTC 10418, 24 h", "value": ">512", "unit": "µg/mL"}, {"measurement": "MIC E. coli", "setting": "[2]; NCTC 10418, 24 h", "value": ">512", "unit": "µg/mL"}, {"measurement": "MBC C. albicans", "setting": "[3]; NCPF 1467, 24 h", "value": ">512", "unit": "µg/mL"}, {"measurement": "MIC C. albicans", "setting": "[3]; NCPF 1467, 24 h", "value": 512, "unit": "µg/mL"}, {"measurement": "MBC S. aureus", "setting": "[4]; NCTC 10788, 24 h", "value": ">512", "unit": "µg/mL"}, {"measurement": "MIC S. aureus", "setting": "[4]; NCTC 10788, 24 h", "value": 512, "unit": "µg/mL"}]}
{"molecule": "FLSLIPKAIKAVGVKAKKF-NH2 [PS-PT2] [listing 1 of 2 here]", "values": [{"measurement": "time in which the original peptide was completely cleaved by trypsin", "setting": "trypsin [1]; up to 72 h", "value": "≤ 30", "unit": "s"}, {"measurement": "scissile site with trypsin", "setting": "trypsin [1]", "value": "Lys^7-Ala^8"}, {"measurement": "haemolytic effect (in words)", "setting": "[6]", "value": "negligible haemolytic effects"}, {"measurement": "MBC E. coli", "setting": "[2]; [9]", "value": ">512", "unit": "µg/mL"}, {"measurement": "MIC E. coli", "setting": "[2]; [10]", "value": 512, "unit": "µg/mL"}, {"measurement": "MBC C. albicans", "setting": "[3]; [9]", "value": 32, "unit": "µg/mL"}, {"measurement": "MIC C. albicans", "setting": "[3]; [11]", "value": 16, "unit": "µg/mL"}, {"measurement": "MBC S. aureus", "setting": "[4]; [9]", "value": 64, "unit": "µg/mL"}, {"measurement": "MIC S. aureus", "setting": "[4]; [12]", "value": 64, "unit": "µg/mL"}, {"measurement": "time after which peptide was completely degraded in serum", "setting": "[5]; pre-incubated 37 °C 15 min", "value": "≤ 30", "unit": "min"}]}
{"molecule": "FLSLIPKAIKAVGVKAKKF-NH2 [PS-PT2] [listing 2 of 2 here]", "values": [{"measurement": "cleaved bond", "setting": "[7]", "value": "Lys7-Ala8, major"}, {"measurement": "fragment found", "setting": "[7]", "value": "1–16 fragment (FLSLIPKAIKAVGVKA-), minor, 1 min"}, {"measurement": "cleaved bond", "setting": "trypsin [8]", "value": "Lys7-Ala8, major, 30 s"}, {"measurement": "fragment found", "setting": "trypsin [8]", "value": "1–17 FLSLIPKAIKAVGVKAK, 4 min"}]}
{"molecule": "FLSLIPKAIKAVGVKAKKF-NH2 [PS-PT2a]", "values": [{"measurement": "fragment found", "setting": "[7]", "value": "2–7 fragments (LSLIPK), minor, 4 h"}, {"measurement": "not cleaved", "setting": "trypsin [8]", "value": "stable in trypsin solution for up to 48 h"}]}
{"molecule": "FLSLIPKAIKAVGVKAKKF-NH2 [PS-PT2b]", "values": [{"measurement": "fragment found", "setting": "[7]", "value": "1–17 (FLSLIPKAIKAVGVKAK), >48 h"}, {"measurement": "cleaved bond", "setting": "trypsin [8]", "value": "Lys10-Ala11, 30 s"}]}
